Assay results published in ChEMBL document CHEMBL4138122, “Azaphenothiazines - promising phenothiazine derivatives. An insight into nomenclature, synthesis, structure elucidation and biological properties” (Eur J Med Chem, 2017).
Values after ≈ are worked out from the molar mass of the structure shown.

system: PBMC; assay: Cytotoxicity in human PBMCs assessed as reduction in cel viability at 50 ug/ml; format: cell-based

Row | Compound | Activity
1 | CCN(C)CC#CCN1c2cnccc2Sc2cccnc21 | <= 22%
2 | CCN(CC)CC#CCN1c2cnccc2Sc2cccnc21 | <= 22%
3 | C(#CCN1c2cnccc2Sc2cccnc21)CN1CCN(c2ccccc2)CC1 | <= 22%

system: Rattus norvegicus; assay: Analgesic activity in Sprague-Dawley rat assessed as reduction in phenylbenzoquinone-induced number of writhes at 20 mg/kg, sc incubated for 60 mins; format: functional; design: scale not given: the % may be the effect or the level left

Row | Compound | Activity
4 | O=C(O)C(=O)O.c1ccc2c(c1)Sc1cnccc1N2CCCN1CCOCC1 | 59 - 86%
5 | CN(C)CCN1c2ccccc2Sc2cnccc21.O=C(O)C(=O)O | 59 - 86%
6 | CN1CCC2=C(C1)Sc1ccccc1N2CCCN1CCOCC1 | 93%
7 | O=C(O)C(=O)O.c1ccc2c(c1)Sc1cnccc1N2CCCN1CCCC1 | 59 - 86%
8 | CN(C)CCCN1c2ccccc2Sc2cnccc21.O=C(O)C(=O)O | 59 - 86%
9 | O=C(O)C(=O)O.c1ccc2c(c1)Sc1cnccc1N2CCCN1CCCCC1 | 59 - 86%

system: Mus musculus; assay: Anti-inflammatory activity in IL1-induced paw inflammation Balb/c mouse model assessed as inhibition of neutrophil migration at 10 mg/kg, po, pretreated for 30 mins followed by IL1 challenge measured after 2 hrs by spectrophotometric method; format: functional

Row | Compound | inhibition in vivo at 10 mg/kg [%]
10 | CS(=O)(=O)N1CCN(Cc2ccc3c(c2)Nc2nccnc2S3)CC1 | 53.4

system: not listed separately; assay: Inhibition of LTB4 formation in rat polymorphonuclear leukocytes preincubated for 2 mins followed by A-23187 addition after 4 mins; format: functional, cell-based

Row | Compound | IC50 [µg/mL]
11 | CN1c2ccccc2Sc2nccnc21 | 1 to 5 (≈ 4.65 to 23.2 µM)
12 | COc1ccc2c(c1Cl)Sc1nccnc1N2C | 1 to 5 (≈ 3.57 to 17.9 µM)
13 | COc1ccc2c(c1)Sc1nccnc1N2 | 0.05 to 1 (≈ 0.216 to 4.32 µM)

system: SNB-19; assay: Cytotoxicity against human SNB19 cells; format: functional, cell-based

Row | Compound | IC50 [µg/mL]
14 | C[n+]1cc2c(c3ccccc31)Nc1ccc(N3CCCCC3)cc1S2.[Cl-] | 0.7 to 11.5
15 | CN1CCN(CC#CCN2c3ccncc3Sc3ccncc32)CC1 | 21.2 (≈ 60.3 µM)
16 | C[n+]1cc2c(c3ccccc31)Nc1cc(OCCN3CCCCC3)ccc1S2.[Cl-] | ≤ 3
17 | CCN(C)CC#CCN1c2cnccc2Sc2cccnc21 | 26.1 to 27.5 (≈ 84.1 to 88.6 µM)
18 | C[n+]1cc2c(c3ccccc31)Nc1cc(OCCN3CCOCC3)ccc1S2.[Cl-] | ≤ 3
19 | C[n+]1cc2c(c3ccccc31)Nc1ccc(N3CCNCC3)cc1S2.[Cl-] | 0.7 to 11.5
20 | FC(F)(F)c1cccc2c1Sc1cnc3ccccc3c1N2 | 10 (≈ 31.4 µM)
21 | C[n+]1cc2c(c3ccccc31)Nc1c(O)cc(-c3ccccc3)cc1S2.[Cl-] | 0.7 to 11.5
22 | COc1ccc2c(c1)Nc1c(c[n+](C)c3ccccc13)S2.[Cl-] | 0.7 to 11.5
23 | CCN(CC)CCCN1c2ccc3ccccc3c2Sc2cc3ccccc3nc21 | 0.98 (≈ 2.37 µM)
24 | COc1ccc2c(c1)Sc1c[n+](C)c3ccccc3c1N2.[Cl-] | 0.7 to 11.5
25 | C[n+]1cc2c(c3ccccc31)Nc1cc(OCCN3CCCC3)ccc1S2.[Cl-] | ≤ 3
26 | CCN(CC)CC#CCN1c2cnccc2Sc2cccnc21 | 26.1 to 27.5 (≈ 80.4 to 84.8 µM)
27 | CN(C)CCCOc1ccc2c(c1)Nc1c(c[n+](C)c3ccccc13)S2.[Cl-] | ≤ 3
28 | c1cnc2c(c1)Nc1ccncc1S2 | 0.46 (≈ 2.29 µM)
29 | C(#CCN1c2cnccc2Sc2cccnc21)CN1CCN(c2ccccc2)CC1 | 33.1 (≈ 80 µM)
30 | CCCCOc1ccc2c(c1)Nc1c(c[n+](C)c3ccccc13)S2.[Cl-] | 0.7 to 11.5

system: Bacillus subtilis; assay: Antibacterial activity against Bacillus subtilis; format: functional

Row | Compound | inhibition zone (IZ)
31 | O=[N+]([O-])c1cnc2c(c1)Sc1cc(Cl)ccc1N2 | 8 - 12 mm
32 | O=[N+]([O-])c1cnc2c(c1)Sc1cc(F)ccc1N2 | 12 mm
33 | O=[N+]([O-])c1cnc2c(c1)Sc1cc(Br)ccc1N2 | 8 - 12 mm
34 | O=[N+]([O-])c1cnc2c(c1)Sc1cccc(Cl)c1N2 | 12 mm
35 | O=[N+]([O-])c1cnc2c(c1)Sc1cccc(F)c1N2 | 8 - 12 mm
36 | O=[N+]([O-])c1cnc2c(c1)Sc1cccc(Br)c1N2 | 8 - 12 mm

molecular target: Intercellular adhesion molecule 1 (Homo sapiens, UniProt P05362); assay: Inhibition of ICAM1 (unknown origin)
Sequence (P05362 whole entry): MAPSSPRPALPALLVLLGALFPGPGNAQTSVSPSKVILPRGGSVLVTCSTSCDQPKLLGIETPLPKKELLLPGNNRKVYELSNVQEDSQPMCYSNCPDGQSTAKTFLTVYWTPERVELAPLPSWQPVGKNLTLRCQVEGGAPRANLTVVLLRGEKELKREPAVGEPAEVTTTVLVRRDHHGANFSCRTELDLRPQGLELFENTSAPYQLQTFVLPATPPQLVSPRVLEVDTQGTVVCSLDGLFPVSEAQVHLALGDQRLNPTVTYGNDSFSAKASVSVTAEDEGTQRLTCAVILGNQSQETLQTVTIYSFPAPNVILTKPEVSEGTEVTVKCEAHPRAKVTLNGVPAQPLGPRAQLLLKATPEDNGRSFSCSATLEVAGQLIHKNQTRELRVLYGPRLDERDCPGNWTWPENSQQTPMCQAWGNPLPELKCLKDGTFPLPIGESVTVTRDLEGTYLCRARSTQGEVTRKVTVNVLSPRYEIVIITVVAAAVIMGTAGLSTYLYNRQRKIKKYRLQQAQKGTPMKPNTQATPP

Row | Compound | IC50 [nM]
37 | O=C(O)C1CCN(Cc2ccc3c(c2)Nc2nccnc2S3)CC1 | 420 to 1000
38 | c1cnc2c(n1)Nc1cc(CN3CCCCC3)ccc1S2 | 270 to 1400
39 | O=S(=O)(NC1CCN(Cc2ccc3c(c2)Nc2nccnc2S3)CC1)C(F)(F)F | 270 to 1400
40 | CNS(=O)(=O)NC1CCN(Cc2ccc3c(c2)Nc2nccnc2S3)CC1 | 270 to 1400
41 | O=S(=O)(NC1CCN(Cc2ccc3c(c2)Nc2nccnc2S3)CC1)N1CCCCC1 | 270 to 1400
42 | CS(=O)(=O)N1CCN(Cc2ccc3c(c2)Nc2nccnc2S3)CC1 | 270 to 1400
43 | c1cnc2c(n1)Nc1cc(CN3CCC3)ccc1S2 | 270 to 1400
44 | O=C(O)CC1CC2CCC(C1)N(Cc1ccc3c(c1)Nc1nccnc1S3)C2 (centres undefined) | 420 to 1000
45 | CC(=O)NC1CCN(Cc2ccc3c(c2)Nc2nccnc2S3)CC1 | 270 to 1400
46 | O=C(O)c1ccc(C2CCN(Cc3ccc4c(c3)Nc3nccnc3S4)CC2)cc1 | 420 to 1000
47 | c1cnc2c(n1)Nc1cc(CN3CCCCCCC3)ccc1S2 | 270 to 1400
48 | NS(=O)(=O)NC1CCN(Cc2ccc3c(c2)Nc2nccnc2S3)CC1 | 270 to 1400
49 | c1cnc2c(n1)Nc1cc(CN3CCCCCC3)ccc1S2 | 270 to 1400
50 | C/C(=C\CC1CCN(Cc2ccc3c(c2)Nc2nccnc2S3)CC1)C(=O)O | 420

system: Escherichia coli; assay: Antibacterial activity against Escherichia coli; format: functional

Row | Compound | inhibition zone (IZ)
51 | O=[N+]([O-])c1cnc2c(c1)Sc1cc(Cl)ccc1N2 | 12 mm
52 | O=[N+]([O-])c1cnc2c(c1)Sc1cc(F)ccc1N2 | 7 - 12 mm
53 | O=[N+]([O-])c1cnc2c(c1)Sc1cc(Br)ccc1N2 | 7 - 12 mm
54 | O=[N+]([O-])c1cnc2c(c1)Sc1cccc(Cl)c1N2 | 7 - 12 mm
55 | O=[N+]([O-])c1cnc2c(c1)Sc1cccc(F)c1N2 | 7 - 12 mm
56 | O=[N+]([O-])c1cnc2c(c1)Sc1cccc(Br)c1N2 | 7 - 12 mm

system: Staphylococcus aureus; assay: Antibacterial activity against Staphylococcus aureus; format: functional

Row | Compound | inhibition zone (IZ)
57 | O=[N+]([O-])c1cnc2c(c1)Sc1cc(Cl)ccc1N2 | 8 - 15 mm
58 | O=[N+]([O-])c1cnc2c(c1)Sc1cc(F)ccc1N2 | 8 - 15 mm
59 | O=[N+]([O-])c1cnc2c(c1)Sc1cc(Br)ccc1N2 | 15 mm
60 | O=[N+]([O-])c1cnc2c(c1)Sc1cccc(Cl)c1N2 | 8 - 15 mm
61 | O=[N+]([O-])c1cnc2c(c1)Sc1cccc(F)c1N2 | 8 - 15 mm
62 | O=[N+]([O-])c1cnc2c(c1)Sc1cccc(Br)c1N2 | 8 - 15 mm

system: MDA-MB-231; assay: Cytotoxicity against human MDA-MB-231 cells; format: functional, cell-based

Row | Compound | IC50 [µg/mL]
63 | C[n+]1cc2c(c3ccccc31)Nc1ccc(N3CCCCC3)cc1S2.[Cl-] | 0.5 to 12
64 | C[n+]1cc2c(c3ccccc31)Nc1cc(OCCN3CCCCC3)ccc1S2.[Cl-] | ≤ 3
65 | C[n+]1cc2c(c3ccccc31)Nc1cc(OCCN3CCOCC3)ccc1S2.[Cl-] | ≤ 3
66 | C[n+]1cc2c(c3ccccc31)Nc1ccc(N3CCNCC3)cc1S2.[Cl-] | 0.5 to 12
67 | C[n+]1cc2c(c3ccccc31)Nc1c(O)cc(-c3ccccc3)cc1S2.[Cl-] | 0.5 to 12
68 | COc1ccc2c(c1)Nc1c(c[n+](C)c3ccccc13)S2.[Cl-] | 0.5 to 12
69 | COc1ccc2c(c1)Sc1c[n+](C)c3ccccc3c1N2.[Cl-] | 0.5 to 12
70 | C[n+]1cc2c(c3ccccc31)Nc1cc(OCCN3CCCC3)ccc1S2.[Cl-] | ≤ 3
71 | CN(C)CCCOc1ccc2c(c1)Nc1c(c[n+](C)c3ccccc13)S2.[Cl-] | ≤ 3
72 | CCCCOc1ccc2c(c1)Nc1c(c[n+](C)c3ccccc13)S2.[Cl-] | 0.5 to 12

system: T47D; assay: Cytotoxicity against human T47D cells; format: functional, cell-based

Row | Compound | IC50 [µg/mL]
73 | CN1CCN(CC#CCN2c3ccncc3Sc3ccncc32)CC1 | 9.6 (≈ 27.3 µM)
74 | C[n+]1cc2c(c3ccccc31)Nc1cc(OCCN3CCCCC3)ccc1S2.[Cl-] | ≤ 3
75 | CCN(C)CC#CCN1c2cnccc2Sc2cccnc21 | 26.1 to 27.5 (≈ 84.1 to 88.6 µM)
76 | C[n+]1cc2c(c3ccccc31)Nc1cc(OCCN3CCOCC3)ccc1S2.[Cl-] | ≤ 3
77 | CCN(CC)CCCN1c2ccc3ccccc3c2Sc2cc3ccccc3nc21 | 5.9 (≈ 14.3 µM)
78 | C[n+]1cc2c(c3ccccc31)Nc1cc(OCCN3CCCC3)ccc1S2.[Cl-] | ≤ 3
79 | CCN(CC)CC#CCN1c2cnccc2Sc2cccnc21 | 26.1 to 27.5 (≈ 80.4 to 84.8 µM)
80 | CN(C)CCCOc1ccc2c(c1)Nc1c(c[n+](C)c3ccccc13)S2.[Cl-] | ≤ 3
81 | C(#CCN1c2cnccc2Sc2cccnc21)CN1CCN(c2ccccc2)CC1 | 45.8 (≈ 111 µM)

system: MCF7; assay: Cytotoxicity against human MCF7 cells; format: functional, cell-based

Row | Compound | IC50 [µg/mL]
82 | FC(F)(F)c1cccc2c1Sc1cnc3ccccc3c1N2 | 9.76 (≈ 30.7 µM)
83 | c1cnc2c(c1)Nc1ccncc1S2 | 0.72 (≈ 3.58 µM)

system: C32; assay: Cytotoxicity against human C32 cells; format: functional, cell-based

Row | Compound | IC50 [µg/mL]
84 | C[n+]1cc2c(c3ccccc31)Nc1ccc(N3CCCCC3)cc1S2.[Cl-] | 0.5 to 7.5
85 | CN1CCN(CC#CCN2c3ccncc3Sc3ccncc32)CC1 | 24.8 to 29.2 (≈ 70.6 to 83.1 µM)
86 | C[n+]1cc2c(c3ccccc31)Nc1cc(OCCN3CCCCC3)ccc1S2.[Cl-] | ≤ 3
87 | CCN(C)CC#CCN1c2cnccc2Sc2cccnc21 | 26.1 to 27.5 (≈ 84.1 to 88.6 µM)
88 | C[n+]1cc2c(c3ccccc31)Nc1cc(OCCN3CCOCC3)ccc1S2.[Cl-] | ≤ 3
89 | C[n+]1cc2c(c3ccccc31)Nc1ccc(N3CCNCC3)cc1S2.[Cl-] | 0.5 to 7.5
90 | C[n+]1cc2c(c3ccccc31)Nc1c(O)cc(-c3ccccc3)cc1S2.[Cl-] | 0.5 to 7.5
91 | COc1ccc2c(c1)Nc1c(c[n+](C)c3ccccc13)S2.[Cl-] | 0.5 to 7.5
92 | CCN(CC)CCCN1c2ccc3ccccc3c2Sc2cc3ccccc3nc21 | 0.8 (≈ 1.93 µM)
93 | COc1ccc2c(c1)Sc1c[n+](C)c3ccccc3c1N2.[Cl-] | 0.5 to 7.5
94 | C[n+]1cc2c(c3ccccc31)Nc1cc(OCCN3CCCC3)ccc1S2.[Cl-] | ≤ 3
95 | CCN(CC)CC#CCN1c2cnccc2Sc2cccnc21 | 26.1 to 27.5 (≈ 80.4 to 84.8 µM)
96 | CN(C)CCCOc1ccc2c(c1)Nc1c(c[n+](C)c3ccccc13)S2.[Cl-] | ≤ 3
97 | c1cnc2c(c1)Nc1ccncc1S2 | 0.46 (≈ 2.29 µM)
98 | C(#CCN1c2cnccc2Sc2cccnc21)CN1CCN(c2ccccc2)CC1 | 26.1 to 27.5 (≈ 63.1 to 66.5 µM)
99 | CCCCOc1ccc2c(c1)Nc1c(c[n+](C)c3ccccc13)S2.[Cl-] | 0.5 to 7.5
